According to patent publication EP4707280A1, “1,4-CINEOLE DERIVATIVE AND INTERMEDIATE THEREOF, HERBICIDE CONTAINING SAID DERIVATIVE AS ACTIVE INGREDIENT, METHOD FOR USING HERBICIDE, AND METHOD FOR PREPARING AGROCHEMICAL COMPOSITION” (HOKKO CHEMICAL INDUSTRY CO., LTD., priority 2023, dated 2024):

Experiments:
Assay type in all cases: in vivo
Echinochloa crus-galli [1] = test: Test Example 4: herbicidal effect test by stem and leaf treatment in upland field; conditions: Echinochloa crus-galli; 120 g per 10 ares; sprayed seven days after sowing, upland soil; 14 days after application; read-out: weed inhibition rate
[2] = test system: Echinochloa crus-galli var. formosensis; test: Test Example 2: herbicidal effect test by application during growth period of paddy rice; conditions: Echinochloa crus-galli; 120 g per 10 ares; applied seven days after sowing, flooded pots; 14 days after application; read-out: weed inhibition rate
Procedure, shortened: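 Herbicidal effect was scored 14 days after treatment, in duplicate per concentration. Weeds sown 0–1 cm deep in puddled, fertilized paddy soil under about 3 cm of standing water received a water-diluted emulsifiable concentrate by dropper 7 days post-sowing, at 120 g a.i. per 10 ares.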

[3] = test system: Echinochloa crus-galli var. formosensis; test: Test Example 1: herbicidal effect test by soil application in paddy rice; conditions: Echinochloa crus-galli, soil, 336 h; 120 g active ingredient per 10 ares; applied immediately after sowing, flooded pots; 14 days after application; read-out: weed inhibition rate
Procedure, shortened: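 Treatment: 120 g active ingredient per 10 ares as a water-diluted emulsifiable concentrate, dropped onto flooded pots immediately after sowing. Thirty seeds per species went 0–1 cm into puddled paddy soil with 16:16:16 fertilizer, with ~3 cm flooding maintained in a glass greenhouse.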

Digitaria ciliaris [4] = test: Test Example 3: herbicidal effect test by soil application in upland field; conditions: Digitaria ciliaris, 120 g per 10 ares, sprayed one day after sowing, 14 days after application, read-out: weed inhibition rate
Procedure, shortened: (§1)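 Weed inhibition (%) was assessed 14 days after treatment, in duplicate per concentration group. Seeds had been mixed into the upper 1 cm of upland alluvial loam, and the soil surface was sprayed one day later with the diluted emulsifiable concentrate at 120 g active ingredient per 10 ares.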

Echinochloa crus-galli [5] = test: as above; conditions: Echinochloa crus-galli, 120 g per 10 ares, sprayed one day after sowing, 14 days after application, read-out: weed inhibition rate
Procedure, shortened: as §1

Digitaria ciliaris [6] = test: Test Example 4: herbicidal effect test by stem and leaf treatment in upland field; conditions: Digitaria ciliaris; 120 g per 10 ares; sprayed seven days after sowing, upland soil; 14 days after application; read-out: weed inhibition rate

CC(C)C12CC(OCc3cccc4ccccc34)C(C)(CC1Br)O2 (stereo not drawn) [1-1383, 5-bromo-1-methyl-2-(naphthalen-1-ylmethoxy)-4-isopropyl-7-oxabicyclo[2.2.1]heptane]
≥ 80%: inhibition at 1200 g/ha (Echinochloa crus-galli [1]) | inhibition at 1200 g/ha [2] | pest or weed control at 1200 g/ha [3] | inhibition at 1200 g/ha (Digitaria ciliaris [4]) | inhibition at 1200 g/ha (Echinochloa crus-galli [5]) | inhibition at 1200 g/ha (Digitaria ciliaris [6])

CC(C)[C@@]12C[C@H](OCc3ccccc3C#N)[C@@](C)(C[C@H]1Br)O2 [1-1043, 2-[[(1R,2S,4S,5R)-5-bromo-1-methyl-4-isopropyl-7-oxabicyclo[2.2.1]heptan-2-yl]oxymethyl]benzonitrile]
≥ 80%: inhibition at 1200 g/ha (Echinochloa crus-galli [1]) | inhibition at 1200 g/ha [2] | pest or weed control at 1200 g/ha [3] | inhibition at 1200 g/ha (Digitaria ciliaris [4]) | inhibition at 1200 g/ha (Echinochloa crus-galli [5]) | inhibition at 1200 g/ha (Digitaria ciliaris [6])

CC(C)[C@]12C[C@@H](OCc3ccc(Br)cc3)[C@](C)(C[C@@H]1Br)O2 [1-696, (1S,2R,4R,5S)-5-bromo-2-[(4-bromophenyl)methoxy]-1-methyl-4-isopropyl-7-oxabicyclo[2.2.1]heptane]
≥ 80%: inhibition at 1200 g/ha (Echinochloa crus-galli [1]) | inhibition at 1200 g/ha [2] | pest or weed control at 1200 g/ha [3] | inhibition at 1200 g/ha (Digitaria ciliaris [4]) | inhibition at 1200 g/ha (Echinochloa crus-galli [5]) | inhibition at 1200 g/ha (Digitaria ciliaris [6])

CC(C)[C@]12C[C@@H](OCc3ccccc3OC(F)(F)F)[C@](C)(CC1=O)O2 [2-348, (1R,4S,5R)-1-isopropyl-4-methyl-5-((2-(trifluoromethoxy)benzyl)oxy)-7-oxabicyclo[2.2.1]heptan-2-one]
≥ 80%: inhibition at 1200 g/ha (Echinochloa crus-galli [1]) | inhibition at 1200 g/ha [2] | pest or weed control at 1200 g/ha [3] | inhibition at 1200 g/ha (Digitaria ciliaris [4]) | inhibition at 1200 g/ha (Echinochloa crus-galli [5]) | inhibition at 1200 g/ha (Digitaria ciliaris [6])

CC(C)[C@@]12C[C@H](OCc3ccccc3Cl)[C@@](C)(C[C@H]1I)O2 [1-1097, (1R,2S,4S,5R)-2-[(2-chlorophenyl)methoxy]-5-iodo-1-methyl-4-isopropyl-7-oxabicyclo[2.2.1]heptane]
≥ 80%: inhibition at 1200 g/ha (Echinochloa crus-galli [1]) | inhibition at 1200 g/ha [2] | pest or weed control at 1200 g/ha [3] | inhibition at 1200 g/ha (Digitaria ciliaris [4]) | inhibition at 1200 g/ha (Echinochloa crus-galli [5]) | inhibition at 1200 g/ha (Digitaria ciliaris [6])

CC(C)[C@@]12C[C@H](OCc3ccccc3I)[C@@](C)(C[C@H]1Br)O2 [1-1037, (1R,2S,4S,5R)-5-bromo-2-[(2-iodophenyl)methoxy]-1-methyl-4-isopropyl-7-oxabicyclo[2.2.1]heptane]
≥ 80%: inhibition at 1200 g/ha (Echinochloa crus-galli [1]) | inhibition at 1200 g/ha [2] | pest or weed control at 1200 g/ha [3] | inhibition at 1200 g/ha (Digitaria ciliaris [4]) | inhibition at 1200 g/ha (Echinochloa crus-galli [5]) | inhibition at 1200 g/ha (Digitaria ciliaris [6])

CC(C)C12CC(OCc3cccc(I)c3)C(C)(CC1Br)O2 (stereo not drawn) [1-1365, 5-bromo-2-[(3-iodophenyl)methoxy]-1-methyl-4-isopropyl-7-oxabicyclo[2.2.1]heptane]
≥ 80%: inhibition at 1200 g/ha (Echinochloa crus-galli [1]) | inhibition at 1200 g/ha [2] | pest or weed control at 1200 g/ha [3] | inhibition at 1200 g/ha (Digitaria ciliaris [4]) | inhibition at 1200 g/ha (Echinochloa crus-galli [5]) | inhibition at 1200 g/ha (Digitaria ciliaris [6])

Cc1ccccc1CO[C@H]1C[C@@]2(C(C)C)O[C@]1(C)C[C@H]2Br [1-1016, (1R,2S,4S,5R)-5-bromo-1-methyl-2-[(2-methylphenyl)methoxy]-4-isopropyl-7-oxabicyclo[2.2.1]heptane]
≥ 80%: inhibition at 1200 g/ha (Echinochloa crus-galli [1]) | inhibition at 1200 g/ha [2] | pest or weed control at 1200 g/ha [3] | inhibition at 1200 g/ha (Digitaria ciliaris [4]) | inhibition at 1200 g/ha (Echinochloa crus-galli [5]) | inhibition at 1200 g/ha (Digitaria ciliaris [6])

CC(C)[C@@]12C[C@H](OCc3ccccc3C#N)[C@@](C)(C[C@H]1I)O2 [1-1109, 2-[[(1R,2S,4S,5R)-5-iodo-1-methyl-4-isopropyl-7-oxabicyclo[2.2.1]heptan-2-yl]oxymethyl]benzonitrile]
≥ 80%: inhibition at 1200 g/ha (Echinochloa crus-galli [1]) | inhibition at 1200 g/ha [2] | pest or weed control at 1200 g/ha [3] | inhibition at 1200 g/ha (Digitaria ciliaris [4]) | inhibition at 1200 g/ha (Echinochloa crus-galli [5]) | inhibition at 1200 g/ha (Digitaria ciliaris [6])
